From patent publication US20240042424A1, “CITY POLLUTION ENVIRONMENT SIMULATION APPARATUS” (BASF SE, priority 2017, published 2024)

Experiments:
Type in all cases: physicochemical
[1] = Sebum oxidation products by GC/MS after exposure in pollution test chamber (dry film method); conditions: for change of sebum component in GC/MS chromatogram: upon UVA exposure
Procedure: (§1) A) Stock solutions and preparation: • Stock solution squalene: 1 g of squalene was dissolved in 100 ml ethanol solvent • Stock solution sebum: 1 g of synthetic sebum (e.g. Synthetic Sebum 09D, available from WFK Testgewebe GmbH) was dissolved in 100 ml ethanol solvent using a water bath 15 minutes under 40° C. heat 1 ml of the respective stock solution was added at the center of large petri dishes (100 mm diameter×17 mm height) using an automatic pipette. After evaporating the ethanol solvent in a high ventilated fume hood for 10 mins, the petri dishes were coated with one uniform layer of squalene, respectively sebum, evenly distributed at the bottom of the petri dish. In total 16 samples were prepared, 8 of each respective batch, meaning 8 with squalene coating (batch 1) and 8 with sebum coating (batch 2). The side walls of the test petri dish samples were wrapped with plastic band seals in order to get them vertically hooked in a position facing the UVA lamps located on sides in the pollution test chamber. Four coated petri dishes, two with squalene and two with sebum, were stored in a fridge at 4° C. for control purposes, due to the autoxidation of squalene.
(§2) For each batch, 2 samples (in total 4 samples per mode) were respectively exposed to the 3 different pollution modes (i to iii): • i. During the “UVA only” (“uv”) mode, the samples were exposed to continuous 340 nm UV irradiation of the 8 UVA lamps for 6 hours. • ii. […]
(§3) 3.3.1 Squalene and Sebum oxidation products quantification with GC/MS • Equipment: Agilent 7890B/5977A GC-MS system • Dissolution solvent: Ethanol • column: DB-1MS • Flow Rate: 2 ml/min • Column Temperature: 40° C. […] Malondialdehyde (MDA) Quantification with Spectrophotometer (MDA-TBA Detection) • UV-vis scan between 200 and 800 nm, • Colorimetry: UV detection for MDA-TBA complex at 532 nm • Standard curve preparation: As precursor of MDA, 1,1,3,3-tetraethoxypropane (TEP) was used. […]

[2] = Squalene oxidation products by GC/MS after exposure in pollution test chamber (dry film method); conditions: solvent ethanol
Procedure: as §1, §2, §3

[3] = MDA quantification/TBA test for squalene samples after pollution exposure
Procedure: as §1, §2, §3

| Compound | change of sebum component in GC/MS chromatogram [1] | squalene oxidization products (GC/MS) ([2]; UVA and exhaust gas (PUV-Mode), UVA 6 h, 3x30 mins diesel engine exhaust gas) | squalene oxidization products (GC/MS) ([2]; UVA irradiation only (UV-Mode), UVA for 6 h) | squalene oxidization products (GC/MS) ([2]; exhaust gas only (p-Mode), 3x30 mins diesel engine exhaust gas) | decrease of squalene from sebum (GC/MS) ([1]; 2 h UVA exposure and one-time 30 min exhaust gas, solvent Ethanol) | MDA percentage of initial mole of squalene ([3]; UVA irradiation only (uv mode)) | MDA percentage of initial mole of squalene ([3]; combined exhaust gas and UV irradiation (puv mode)) | MDA percentage of initial mole of squalene ([3]; exhaust gas only (p mode)) |
| --- | --- | --- | --- | --- | --- | --- | --- | --- |
| CC(C)CCC[C@@H](C)[C@H]1CC[C@H]2[C@@H]3CC=C4C[C@@H](O)CC[C@]4(C)[C@H]3CC[C@]12C [cholesterol] | increase | – | – | – | – | – | – | – |
| CC(C)=CCC/C(C)=C/CC/C(C)=C/CC/C=C(\C)CC/C=C(\C)CCC=C(C)C [squalene] | – | a mix of pollution-induced squalene isomers (SQ isomers) as well as irradiation-induced oxidation products (SQOPs) | highest content of oxidation products | squalene isomers (SQ isomers) | 93% | 14.0% | 13.6% | 13.5% |
| CCCCCCCCCCCCCCCC(=O)O [palmitic acid] | increase | – | – | – | – | – | – | – |
